Patent US8637510B2, “Morpholinothiazoles as alpha 7 positive allosteric modulators” (Janssen Pharmaceutica NV, priority 2009, dated 2014)

How the values were obtained:
human alpha 7-wt nAChR = molecular target: T1, human alpha 7-wt nAChR (Homo sapiens, UniProt P36544); assay: Ca2+ flux imaging (FDSS) (Protocol B); format: cell-based; conditions: for EC50: potentiation of 100 μM choline, compounds 0.01 μM to 30 μM, read-out: a7-PAM-G_[33]_pEC50 pEC50 (converted); for a7-PAM-G_[33]_Eff_Curve_FI % Efficacy / Emax: efficacy of 100 μM choline defined as 100% in the absence of a PAM; for Emax: read-out: a7-PAM-G_[33]_Eff_Curve_FI % Efficacy
T1 construct: expressed in transfected cells
Procedure, shortened: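 Fluo-4AM-loaded cells expressing human α7-wt nAChR, in HBSS with 10 mM HEPES, 5 mM CaCl2, 0.1% BSA, received compound (0.01–30 μM), typically 10 min before 100 μM choline, with calcium flux read in real time. Potentiation is relative to choline alone (100%); EC50 from sigmoidal curves.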

[1] = molecular target: T2, human alpha 7-wt nAChR-expressing GH4C1 cells (Homo sapiens, UniProt P36544); assay: Patch-clamp current recording (whole-cell voltage-clamp, PAM type classification); format: cell-based; set-up: key: Type 0 compounds minimally change the effect size of the current elicited by 1 mM choline.; Type 1 compounds enhance the effect size of the current elicited by 1 mM choline but minimally alter the kinetics of the receptor.; Type 2 compounds enhance the effect size of the current elicited by 1 mM choline while reducing the rate and/or the extent of desensitization.; Type 3 compounds enhance the effect size of the current elicited by 1 mM choline. When tested at higher concentrations up to 10 μM they completely inhibit desensitization; Type 4 compounds allow for an initial desensitization of the receptor followed by a re-opening of the receptor during agonist application; conditions: 1 mM choline
T2 construct: expressed in transfected cells
Procedure: The compounds of the present invention are classified as type 1-4, based on qualitative kinetic properties, as determined by whole-cell voltage-clamp recordings. This classification is based on the effect of an alpha 7 PAM compound, as described hereinbefore, on the signal elicited by an agonist application. In particular, said agonist is choline at a concentration of 1 mM. In a preferred experimental setting, said alpha 7 PAM compound and choline are simultaneously applied to the cell, as described hereinafter. Desensitization is defined as the closure of the receptor upon activation during the application of the agonist in whole-cell voltage-clamp electrophysiology measurements seen as the reduction of the […] current after initial activation by the agonist.
The definition of the PAM types 1-4 is described hereinafter: • Type 0 compounds minimally change the effect size of the current elicited by 1 mM choline. • Type 1 compounds enhance the effect size of the current elicited by 1 mM choline but minimally alter the kinetics of the receptor. In particular, the rate and the extent of desensitization and of deactivation of the receptor elicited by the agonist is not affected. The compound-modulated response to 1 mM choline, therefore, is close to a linear scaling of the 1 mM choline response in absence of the alpha 7 PAM compound. • Type 2 compounds enhance the effect size of the current elicited by 1 mM choline while reducing the rate and/or the extent of desensitization. Deactivation of the receptor is generally unaffected. • Type 3 compounds enhance the effect size of the current elicited by 1 mM choline. […] Deactivation of the receptor may be slowed down • Type 4 compounds allow for an initial desensitization of the receptor followed by a re-opening of the receptor during agonist application. At low-potency concentrations of the alpha 7 PAM compound, the agonist-induced activation, which is followed by desensitization, can still be separated from the compound-induced re-opening as an initial inward current-maximum. At higher potency concentrations of the alpha 7 PAM compound, the re-opening occurs faster than the closure due to desensitization so that the initial current-maximum disappears.
A compound was considered to have interesting PAM-like activity when the potentiation of the peak current was at least 200% compared to the control choline response (=100%). Such compounds are classified as belonging to a particular PAM type in the Experimental Part. Compounds not meeting the condition are not classified as belonging to a particular PAM-type.
The compounds also have a potentiating effect on the response to choline when measured by whole-cell patch clamp electrophysiology in GH4C1 cells stably over-expressing the human wild-type alpha 7 receptor.
Patch-clamp recording from mammalian cells has provided a powerful means of assessing the function of membrane-bound proteins thought to be subunits of ligand-gated ion channels. Activation of such proteins by endogenous or exogenous ligands cause opening of a pore associated with the receptor through which ions flow down their electrochemical gradient. In the case of the human alpha 7-wt nAChR-expressing GH4C1 recombinant cell line the preferential permeability to calcium of this receptor means that calcium flows into the cell upon activation by ACh, choline and other nicotinic ligands giving rise to a calcium current. Since this receptor rapidly desensitizes in the presence of agonist it is important that an application system is used which is capable of very rapid switching of solutions (<100 ms) to prevent partial or full desensitisation of receptor responses coincident with the time of agonist application. Consequently, a second convenient technique to assess the enhancement of nicotinic efficacy is a patch-clamp recording from human alpha 7-wt nAChR-expressing GH4C1 cells coupled with a rapid-application system. […]

T1 sequence (P36544 23-502): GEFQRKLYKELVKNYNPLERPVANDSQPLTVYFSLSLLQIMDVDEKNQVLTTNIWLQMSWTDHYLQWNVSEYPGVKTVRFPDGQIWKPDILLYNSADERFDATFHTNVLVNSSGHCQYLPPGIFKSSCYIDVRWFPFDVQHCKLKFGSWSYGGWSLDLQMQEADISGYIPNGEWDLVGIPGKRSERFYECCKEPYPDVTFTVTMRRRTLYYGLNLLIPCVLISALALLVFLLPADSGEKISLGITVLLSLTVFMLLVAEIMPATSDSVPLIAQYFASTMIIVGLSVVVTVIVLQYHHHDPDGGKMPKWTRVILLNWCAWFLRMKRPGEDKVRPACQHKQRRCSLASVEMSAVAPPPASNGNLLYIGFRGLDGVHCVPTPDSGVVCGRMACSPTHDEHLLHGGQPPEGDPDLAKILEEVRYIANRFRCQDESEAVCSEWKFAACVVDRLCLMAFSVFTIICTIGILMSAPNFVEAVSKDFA
T2 sequence (P36544 23-502): as above

Structure (SMILES)	melting point [°C]	EC50 (human alpha 7-wt nAChR) [µM]	PAM_Type PAM type [1]	a7-PAM-G_[33]_Eff_Curve_FI % Efficacy (human alpha 7-wt nAChR) [%]	Emax (human alpha 7-wt nAChR) [%]
Cc1cc(-c2sc(N3CCOC(C)C3)nc2CNC(=O)C(C)C)cc(C)n1 (single isomer, unassigned) [Compound 71, N-[[5-(2,6-dimethyl-4-pyridinyl)-2-[(2S*)-2-methyl-4-morpholinyl]-4-thiazolyl]methyl]-2-methyl-propanamide]	188	0.692	2	–	–
Cc1cc(-c2sc(N3CCOC(C)C3)nc2CNC(=O)CC2CC2)cc(C)n1 (single isomer, unassigned) [Compound 75, N-[[5-(2,6-dimethyl-4-pyridinyl)-2-[(2R*)-2-methyl-4-morpholinyl]-4-thiazolyl]methyl]-cyclopropaneacetamide]	170	1.02	2	819	–
Cc1cc(-c2sc(N3CCOC(C)C3)nc2CNC(=O)C(C)C)cc(C)n1 (single isomer, unassigned) [Compound 76, N-[[5-(2,6-dimethyl-4-pyridinyl)-2-[(2R*)-2-methyl-4-morpholinyl]-4-thiazolyl]methyl]-2-methyl-propanamide]	189	0.55	2	–	611
Cc1cc(-c2sc(N3CCOC(C)C3)nc2CNC(=O)CC2CC2)cc(C)n1 (single isomer, unassigned) [Compound 78, N-[[5-(2,6-dimethyl-4-pyridinyl)-2-[(2S*)-2-methyl-4-morpholinyl]-4-thiazolyl]methyl]-cyclopropaneacetamide]	169	1.17	2	919	–
Cc1cc(-c2sc(N3C[C@@H](C)O[C@@H](C)C3)nc2CNC(=O)c2cc(C)on2)cc(C)n1 [Compound 3, N-[[2-[(2R,6S)-2,6-dimethyl-4-morpholinyl]-5-(2,6-dimethyl-4-pyridinyl)-4-thiazolyl]methyl]-5-methyl-3-isoxazolecarboxamide]	208	0.813	1	–	–
Cc1cc(C(=O)NCc2nc(N3C[C@@H](C)O[C@@H](C)C3)sc2-c2cc(C)nc(C)c2)on1 [Compound 4, N-[[2-[(2R,6S)-2,6-dimethyl-4-morpholinyl]-5-(2,6-dimethyl-4-pyridinyl)-4-thiazolyl]methyl]-3-methyl-5-isoxazolecarboxamide]	184	1.41	2	–	927
COc1cc(-c2sc(N3C[C@@H](C)O[C@@H](C)C3)nc2CNC(=O)c2conc2C)cc(C)n1 [Compound 81, N-[[2-[(2R,6S)-2,6-dimethyl-4-morpholinyl]-5-(2-methoxy-6-methyl-4-pyridinyl)-4-thiazolyl]methyl]-3-methyl-4-isoxazolecarboxamide]	–	0.295	2	–	384
Cc1cc(-c2sc(N3C[C@@H](C)O[C@@H](C)C3)nc2CNC(=O)C2CCC2)ccn1 [Compound 89, N-[[2-[(2R,6S)-2,6-dimethyl-4-morpholinyl]-5-(2-methyl-4-pyridinyl)-4-thiazolyl]methyl]-cyclobutanecarboxamide]	–	0.631	2	–	528
Cc1cc(-c2sc(N3C[C@@H](C)O[C@@H](C)C3)nc2CNC(=O)c2nc(C)oc2C)cc(C)n1 [Compound 134, N-[[2-[(2R,6S)-2,6-dimethyl-4-morpholinyl]-5-(2,6-dimethyl-4-pyridinyl)-4-thiazolyl]methyl]-2,5-dimethyl-4-oxazolecarboxamide]	–	2.4	0	–	464
Cc1cc(-c2sc(N3C[C@@H](C)O[C@@H](C)C3)nc2CNC(=O)c2ccc(S(N)(=O)=O)cc2)cc(C)n1 [Compound 144, 4-(aminosulfonyl)-N-[[2-[(2R,6S)-2,6-dimethyl-4-morpholinyl]-5-(2,6-dimethyl-4-pyridinyl)-4-thiazolyl]methyl]-benzamide]	–	2.14	2	–	–
Cc1cc(-c2sc(N3C[C@@H](C)O[C@@H](C)C3)nc2CNC(=O)c2oncc2C)cc(C)n1 [Compound 148, N-[[2-[(2R,6S)-2,6-dimethyl-4-morpholinyl]-5-(2,6-dimethyl-4-pyridinyl)-4-thiazolyl]methyl]-4-methyl-5-isoxazolecarboxamide]	–	1.23	0	–	–
Cc1cc(-c2sc(N3C[C@@H](C)O[C@@H](C)C3)nc2CNC(=O)C2CC(=O)OC2(C)C)cc(C)n1 (stereo partly drawn) [Compound 154, N-[[2-[(2R,6S)-2,6-dimethyl-4-morpholinyl]-5-(2,6-dimethyl-4-pyridinyl)-4-thiazolyl]methyl]tetrahydro-2,2-dimethyl-5-oxo-3-furancarboxamide]	–	0.871	1	–	791
Cc1cc(-c2sc(N3C[C@@H](C)O[C@@H](C)C3)nc2CNC(=O)Cc2c(C)noc2C)cc(C)n1 [Compound 166, N-[[2-[(2R,6S)-2,6-dimethyl-4-morpholinyl]-5-(2,6-dimethyl-4-pyridinyl)-4-thiazolyl]methyl]-3,5-dimethyl-4-isoxazoleacetamide]	–	0.525	1	–	–
Cc1cc(-c2sc(N3C[C@@H](C)O[C@@H](C)C3)nc2CNC(=O)CC(F)(F)F)cc(C)n1 [Compound 168, N-[[2-[(2R,6S)-2,6-dimethyl-4-morpholinyl]-5-(2,6-dimethyl-4-pyridinyl)-4-thiazolyl]methyl]-3,3,3-trifluoro-propanamide]	–	0.0692	1	–	924
Cc1cc(-c2sc(N3C[C@@H](C)O[C@@H](C)C3)nc2CNC(=O)COCC(F)(F)F)cc(C)n1 [Compound 175, N-[[2-[(2R,6S)-2,6-dimethyl-4-morpholinyl]-5-(2,6-dimethyl-4-pyridinyl)-4-thiazolyl]methyl]-2-(2,2,2-trifluoroethoxy)-acetamide]	–	0.525	1	–	–
Cc1cc(-c2sc(N3C[C@@H](C)O[C@@H](C)C3)nc2CNC(=O)C(C)C2CC2)cc(C)n1 (stereo partly drawn) [Compound 179, N-[[2-[(2R,6S)-2,6-dimethyl-4-morpholinyl]-5-(2,6-dimethyl-4-pyridinyl)-4-thiazolyl]methyl]-α-methyl-cyclopropaneacetamide]	–	0.0977	2	–	707
Cc1cc(-c2sc(N3CCOC(C(F)(F)F)C3)nc2CNC(=O)c2ccc(F)cc2C)cc(C)n1 (stereo not shown) [Compound 193, N-[[5-(2,6-dimethyl-4-pyridinyl)-2-[2-(trifluoromethyl)-4-morpholinyl]-4-thiazolyl]methyl]-4-fluoro-2-methyl-benzamide]	–	0.0209	4	–	–
Cc1cc(F)ccc1C(=O)NCc1nc(N2C[C@@H](C)O[C@@H](C)C2)sc1-c1ccnc(C(F)(F)F)c1 [Compound 198, N-[[2-[(2R,6S)-2,6-dimethyl-4-morpholinyl]-5-[2-(trifluoromethyl)-4-pyridinyl]-4-thiazolyl]methyl]-4-fluoro-2-methyl-benzamide]	–	0.148	1	–	–
